From article PMC4503722, “Novel Phenotypic Outcomes Identified for a Public Collection of Approved Drugs from a Publicly Accessible Panel of Assays” (PLoS ONE, 2015)

Tests used:
[1] = tested on: STC-1 cell line; type: cell-based, mouse; settings: for mSTC-1 GLP1 Secretion IC50/EC50: assay number 13
[2] = tested on: Colo320; assay: cells; type: cell-based; settings: for Basal_Viability ATP Colo 320 IC50/EC50: assay number 27
[3] = tested on: HCT116; assay: cells; type: cell-based; settings: basal; for Basal_Viability ATP HCT116 IC50/EC50: assay number 25
[4] = tested on: SNU-C1; assay: cells; type: cell-based; settings: for Basal_Viability ATP SNU-C1 IC50/EC50: assay number 30
[5] = tested on: HCT116 cells treated with a GSK3β inhibitor; assay: cells; type: cell-based; settings: for GSK3b inh pretreated_Viability ATP HCT116 IC50/EC50: assay number 26, GSK3b inhibitor pretreated
[6] = tested on: NCI-H716 cells; assay: cells; type: cell-based, Human; settings: for hNCI-H716 GLP1 Secretion IC50/EC50: assay number 12
[7] = tested on: DLD-1; assay: cells; type: cell-based; settings: for Basal_Viability ATP DLD-1 IC50/EC50: assay number 23
[8] = tested on: RKO; assay: cells; type: cell-based; settings: for Basal_Viability ATP RKO IC50/EC50: assay number 29
[9] = tested on: SW480; assay: cells; type: cell-based; settings: for Basal_Viability ATP SW480 IC50/EC50: assay number 24
[10] = tested on: HT-29; assay: cells; type: cell-based; settings: for Basal_Viability ATP HT-29 IC50/EC50: assay number 28
[11] = tested on: HeLa cells; assay: cells; type: cell-based; settings: for Hela CellCycMod PI 2N IC50/EC50: assay number 14; for Hela CellCycMod PI S Phase IC50/EC50: assay number 15; for Hela CellCycMod PI 4N IC50/EC50: assay number 16; for Hela CellCycMod PI MI IC50/EC50: assay number 17; for Hela CellCycMod PI Cell Number IC50/EC50: assay number 18
[12] = tested on: endothelial tube formation in co-cultures of ECFCs and ADSCs treated with VEGF; assay: cells; type: cell-based, human
[13] = tested on: ECFC/ADSC co-culture cell nuclei number

Structure (SMILES) | mSTC-1 GLP1 Secretion IC50/EC50 [1] [nM] | Hela CellCycMod PI 2N IC50/EC50 [11] [nM] | Hela CellCycMod PI S Phase IC50/EC50 [11] [nM] | Hela CellCycMod PI 4N IC50/EC50 [11] [nM] | Hela CellCycMod PI MI IC50/EC50 [11] [nM] | Hela CellCycMod PI Cell Number IC50/EC50 [11] [nM] | hNCI-H716 GLP1 Secretion IC50/EC50 [6] [nM] | VEGF_ADSC\ECFC Angio CD31 TubeArea IC50/EC50 [12] [nM] | VEGF_ADSC\ECFC Angio Hoechst NucArea IC50/EC50 [13] [nM] | Basal_Viability ATP Colo 320 IC50/EC50 ([2]; basal) [nM] | Basal_Viability ATP HCT116 IC50/EC50 [3] [nM] | Basal_Viability ATP SNU-C1 IC50/EC50 ([4]; basal) [nM] | Basal_Viability ATP DLD-1 IC50/EC50 ([7]; basal) [nM] | Basal_Viability ATP RKO IC50/EC50 ([8]; basal) [nM] | Basal_Viability ATP HT-29 IC50/EC50 ([10]; basal) [nM] | GSK3b inh pretreated_Viability ATP HCT116 IC50/EC50 [5] [nM] | Basal_Viability ATP Colo 320 IC50/EC50 [2] [nM] | Basal_Viability ATP SNU-C1 IC50/EC50 [4] [nM] | Basal_Viability ATP DLD-1 IC50/EC50 [7] [nM] | Basal_Viability ATP RKO IC50/EC50 [8] [nM] | also measured
OCCN1CCN(CC/C=C2/c3ccccc3Sc3ccc(C(F)(F)F)cc32)CC1 [NCGC00162179-08] |  |  |  |  |  |  |  |  |  |  |  |  |  |  |  |  |  |  |  |  | IC50/EC50, mSTC-1 GLP1 Secretion (assay number 13) ([1]; concentration response): > 40000 nM; IC50/EC50, Basal_Viability ATP Colo 320 (assay number 27) ([2]; basal): 2313.8 nM; IC50/EC50, Basal_Viability ATP HCT116 (assay number 25) [3]: 4577 nM; IC50/EC50, Basal_Viability ATP SNU-C1 (assay number 30) ([4]; basal): 1035 nM; IC50/EC50, GSK3b inh pretreated_Viability ATP HCT116 (assay number 26) ([5]; GSK3b inh pretreated): 2894 nM; IC50/EC50, hNCI-H716 GLP1 Secretion (assay number 12) ([6]; concentration response): 32155.5 nM; IC50/EC50, Basal_Viability ATP DLD-1 (assay number 23) ([7]; basal): 1467 nM; IC50/EC50, Basal_Viability ATP RKO (assay number 29) ([8]; basal): 317.8 nM; IC50/EC50, Basal_Viability ATP SW480 (assay number 24) ([9]; basal): 3928 nM; IC50/EC50, Basal_Viability ATP HT-29 (assay number 28) ([10]; basal): 1808 nM
O=C(O)C[CH2][Ge](=[O])[O][Ge](=[O])[CH2]CC(=O)O [NCGC00164525-02] | 793.2 | > 10000 | > 10000 | > 10000 | > 10000 | 503.4 | 1527.1 | 154.6 | 260.6 |  |  |  |  |  |  |  |  |  |  |  | 
OC1(c2ccc(Cl)c(C(F)(F)F)c2)CCN(CCCC(c2ccc(F)cc2)c2ccc(F)cc2)CC1 [NCGC00165865-02] | > 40000 |  |  |  |  |  | 8448 |  |  | 961.7 | 1853 | 167.5 | 1139.3 | 971.2 | 945.9 |  |  |  |  |  | 
CCCCCCCCCCCCCCCC[N+](C)(C)CC.[Br-] [NCGC00166120-02] | > 40000 |  |  |  |  |  | 11734.7 | 1137.8 | 7579 | 37.2 | 3159.5 | 4 | 740.3 | 930.9 | 409.1 | 2682.5 |  |  |  |  | Basal_Viability ATP SW480 IC50/EC50 ([9]; basal): 1238.7 nM
Clc1ccc(C(Cn2ccnc2)OCc2c(Cl)cccc2Cl)c(Cl)c1 (stereo not shown) [NCGC00179642-03] | > 40000 |  |  |  |  |  | > 40000 |  |  |  | 1593.9 |  |  |  |  | 1398.4 | 1816.8 | 886.1 | 2355.4 | 4010.7 | Basal_Viability ATP SW480 IC50/EC50 [9]: 2601.1 nM; Basal_Viability ATP HT-29 IC50/EC50 [10]: 5003.2 nM
Cl.Oc1ccc([C@H]2CNCc3c2ccc(O)c3O)cc1O [NCGC00183049-01] | > 20000 | > 10000 | > 10000 | > 10000 | > 10000 | > 10000 | 5946.2 |  |  |  | > 20000 |  |  |  |  | 187.6 | 466.2 | > 20000 | > 20000 | 33.16 | Basal_Viability ATP SW480 IC50/EC50 [9]: > 20000 nM; Basal_Viability ATP HT-29 IC50/EC50 [10]: > 20000 nM
